Assay results reported in US6723702B2, “Use of relaxin treat diseases related to vasoconstriction” (RAS Medical, Inc., priority 2000, dated 2004).

Legend:
[1] = tested on: wound chambers at shoulder and hip of Sprague Dawley rats; test: Hunt-Schilling wound chamber assay; type: in vivo, rat
Method: The effect of rhRLX on normal and ischemic wound healing in two rat models of dermal wound healing was evaluated. RhRLX in vehicle, or vehicle alone, was delivered by subcutaneous infusion to Sprague-Dawley rats using an implanted ALZET7 osmotic pump (Alza Corp., Mountain View, Calif.).
In the first model, Hunt-Schilling wound chambers were implanted subcutaneously at either the shoulder or the hip region. The fluid and cells contained within each wound chamber were collected on day 18 for analysis of VEGF protein and mRNA. VEGF protein was detected and measured using ELISA. VEGF-encoding mRNA was detected using Northern blotting and RT-PCR. The granulation tissue within the wound chambers was collected for histological and immunohistochemical evaluation.
Stainless steel mesh cylinders (0.9 cm×3.4 cm) fitted with silicone rubber plugs at both ends were autoclaved prior to implantation. Chambers were implanted into two separate subcutaneous pockets (“Site 1” on the shoulder and “Site 2” on the hip) on the backs of Sprague Dawley rats. At the same time, osmotic pumps were implanted in a subcutaneous pocket at site distal to that of the chambers. At 18 days, chambers were carefully dissected free from the interstitium, and fluid aspirated using an 18-gauge needle through the silicone plugs at the end of the cylinder, and immediately placed on ice. Cells suspended within the fluid were pelleted by centrifugation, and cells and fluid were separated. Total RNA was harvested using RNAzol (Tel-Test, Inc., Friendswood, Tex.), according to vendor instructions. Fluid was immediately frozen, and assayed at a later date for cyokine content.
Primers were purchased from BioSource International (Camarillo, Calif.) and visualized using agarose gel electrophoresis.
Sense and anti-sense primers for use with the real time RT-PCR, ABI Prism 7700 Sequence Detection System were designed using the PrimerExpress version 1.0 software (PE Applied Biosystems, Inc.). Rat and human specific primer/probe sets included those for GAPDH, bFGF, the VEGF 164 aa or 120 aa rat isoforms, and their respective human homologues (VEGF 165 and VEGF 121). ABI PRISM specific primer/probes were purchased from BioSource International Inc. or PE Applied Biosystems.
RT-PCR was performed on 150 ng for the analysis of VEGF and bFGF mRNA expression. Ten nanograms of total RNA was used for GAPDH niRNA expression. PCR products using the ABI Prism 7700 Sequence Detection system (all reactions in a total volume of […]) were generated using primer/probe annealing temperatures of 58° C. and 35 cycles of PCR. Data were analyzed using Sequence Detector v1.6.3 software (Applied Biosystems/PE).
Relaxin was administered systemically to rats using osmotic pumps. In order to assess relaxin's ability to modulate expression of angiogenic cytokines at wound sites, Hunt-Schilling wound chambers were used for fluid and inflammatory cell collection. Wound chambers were implanted subcutaneously at two sites, the shoulder and the hip, distal to the site of pump implantation. Fluid and cells were collected at a point (18 days) during the healing time course when endogenous angiogenic activity and the cellular source, macrophages, were known to be present. Total RNA was harvested from wound cells and analyzed by RT-PCR for VEGF transcripts. When analyzed on an agarose gel, there were two distinct bands comprising the amplified products, corresponding to the 121aa and 164aa, isoforms of VEGF.
To assess the effect of rhRlx treatment on granulation tissue formation in normal and ischemic wounds, Hunt-Schilling wound chambers were implanted subcutaneously in either the shoulder or the more hypoxic hip region of female Sprague Dawley rats (Charles River Laboratories, Mass.). The wound chambers, fine stainless steel mesh cylinders sealed with medical grade silicone, provide a defined dead space for granulation tissue formation. […]

THP-1 cells = test: THP-1 cells: secreted VEGF protein by ELISA; type: cell-based, human
Method: THP-1 cells were obtained from the American Type Culture Collection (ATCC# TIB202), and grown in Iscove's medium supplemented with 10% fetal bovine serum and 2 mM L-glutamine. For experiments, THP-1 cells were cultured at 5×10^5 cells/ml in 24-well plates, treated and allowed to incubate for various times at 37° C. Conditioned media and cells were then collected, and cells removed by centrifugation at 500 g for 5 min. Media were stored at −80° C. until assayed.
VEGF protein was quantified in an ELISA kit purchased from R & D Systems (Minneapolis, Minn.). The lower limit of sensitivity of the assay was 10 pg/ml.
Because macrophages are the inflammatory cells predominantly responsible for the angiogenic response that occurs during healing, a monocyte/macrophage cell line shown previously to bind relaxin with high affinity (THP-1) (Parsell et al. (1996) J. Biol. Chem. 271:27936-27941) was tested for relaxin inducibility of VEGF and bFGF. THP-1 cells were cultured in vitro, treated with relaxin (100 ng/ml) for 3 hours, and assayed for VEGF and bFGF mRNA induction. […] In order to determine whether the increase in VEGF mRNA observed following short-term relaxin treatment was reflected by an elevation in secreted VEGF protein, THP-1 cells were treated with relaxin (0.01-100 ng/ml) for 24 h, the conditioned media collected, and VEGF content in the media quantified by ELISA. […]

[2] = wound chamber cells, both shoulder and hip region, day 18
[3] = wound chambers in the hip region

In the case of “rhRLX: recombinant human relaxin, identical in amino acid sequence to the product of the human H2 gene; A chain of 24, B chain of 29 amino acids”, the “expression of VEGF 164 mRNA” value ([1]; anteriorly placed (shoulder) wound chamber, real-time RT-PCR) is reported as “upregulated”, the “bFGF transcripts in wound cells” value ([1]; both shoulder and hip chambers) is reported as “significant upregulation” and the “VEGF 120 mRNA” value ([1]; both sites, real-time RT-PCR) is reported as “trends toward increases”. For the same substance, the “expression of VEGF 164 mRNA” value ([1]; chamber placed on the hip, real-time RT-PCR) was “trend toward an increase”, the “bFGF, and VEGF expression in wounds cells” value ([1]; hip region (Example 7)) was “increase” and the “new blood vessel formation” value ([1]; hip region (Example 7)) was “increase”. For the same substance, the “Expression of both VEGF isoforms, RT-PCR on agarose gel” value ([1]; wound cells, 18 days) was “appeared to be enhanced”, the “VEGF mRNA increase compared to vehicle-treated rats” value [1, 2] was 31% and the “bFGF mRNA increase compared to vehicle-treated rats” value [1, 2] was 59%. The “weight of granulation tissue” value ([1]; wound chambers at the hip region, day 18 (Example 7)) was “significant increase”, the “amount of extracellular matrix deposition” value [1, 3] was “increased” and the “amount of granulation tissue” value [1, 3] was 255 mg. The number of capillaries [1, 3] was “increased”, the tissue weight ([1]; wound chambers in the shoulder region) was 283 mg and the VEGF protein secretion (THP-1 cells; 0.01-100 ng/ml for 24 h, dose-dependent) was “approximately 150%”. For the same substance, the “threshold relaxin concentration required for stimulation of VEGF protein secretion” value (THP-1 cells; 24 h) was 0.2 to 1.0 ng/mL.
